Measured values taken from paper PMC8878717, “The Oxime Ethers with Heterocyclic, Alicyclic and Aromatic Moiety as Potential Anti-Cancer Agents” (Molecules, 2022).
In brackets after ≈: the same amount, converted by molar mass. Several values for one entry are separate records, joined by “and”; a condition that tells them apart may be missing. Identical values can stand only once. Like-named read-outs stand apart in the source and are kept apart here.

Assays:
HeLa cells [1] = test: MTT cytotoxicity test on HeLa cells; format: cell-based, human
Method: Cytotoxic properties of all compounds were determined by 3-(4,5-dimethylthiazol-2-yl)-2,5-diphenyltetrazolium bromide (MTT) test reflecting cell viability. Cytotoxicity screening of all 27 compounds—2-acetylbenzofuran oxime (6) and its oxime ethers (1–5), as well as: 2-acetylthiophene (7–17), cyclohexanone (18–20), acetophenone (21–23), thiazole (24–25), benzothiazole (26–27) oxime ethers—was performed in vitro on human cervical adenocarcinoma (HeLa) cells as the representatives of cancerous cells.
(§1) 2-Acetylbenzofuran, 2-acetylbenzothiophene, 2-acetylthiophene, 2-acetylthiazole, cyclohexanone and acetophenone derivatives were used for in vitro cytotoxicity assays with cervical adenocarcinoma (HeLa), human dermal fibroblasts (HDF), lung epithelial carcinoma (A549), and intestinal epithelial carcinoma (Caco-2) cell lines. A549, Caco-2, and HeLa cells were obtained from Sigma-Aldrich (Germany), and HDF from Biokom (Poland). All cell lines were cultured according to the manufacturer’s protocol under sterile conditions in the presence of 4.9% CO2 at 37 °C. A549 cells were grown in F-12 medium containing 10% fetal bovine serum (FBS) and 1% penicillin/streptomycin. HDF cells were grown in DMEM (low glucose, with 2 mM glutamine) medium containing 10% fetal bovine serum (FBS) and 1% penicillin/streptomycin. Caco-2 cells were grown in EMEM medium containing 10% fetal bovine serum (FBS), 1% non-essential amino acids (NEAA) and 1% penicillin/streptomycin. HeLa cells were grown in DMEM (low glucose, with 2 mM glutamine) medium containing 10% fetal bovine serum (FBS) and 1% gentamycin. After thawing, cells were cultured until they reached sub-confluent state. The cells were then detached using 0.25% trypsin solution and seeded into 24-well or 96-well plates (3 × 10^3 cells per well) for further experiments. After 24 h growth, the tested compounds were added to the cell cultures in concentrations of 1, 10, 50, 100 and 250 μg mL^−1, respectively, and incubated for the next 24 h or 72 h. The MTT test, based on the ability to reduce 3-(4,5-dimethylthiazol 2-yl)-2,5-diphenyltetrazolium bromide (MTT) by mitochondrial dehydrogenases, was performed in triplicate to assess cell metabolic activity and viability. The plates were then read spectrophotometrically at a wavelength of 570 nm. The dose-dependence curves were charted directly on x-/y-axes, with the drug dosages on the x-axis and the cell viability (percentage of viable cells) on the y-axis.

[2] = MTT cytotoxicity test on HDF cells; format: cell-based, human; conditions: human, human dermal fibroblasts (HDF); 50 μg/mL, 24 h exposure
Method: (§2) Therefore, compounds showing the highest cytotoxicity (8, 9, 18, 22, 24–27) were further tested on normal human dermal fibroblasts (HDF), A549, Caco-2, and HeLa cells to compare their activity after 24 h and 72 h culture (Figure 5 and Figure 6).
as §1

[3] = test system: human dermal fibroblasts (HDF); test: MTT cytotoxicity test on HDF cells; format: cell-based; conditions: Homo sapiens, Fibroblast, HDF, MTT
Method: as §2, §1

A549 cells = test: MTT cytotoxicity test on A549 cells; format: cell-based; conditions: Homo sapiens
Method: as §2, §1

Caco-2 cells = test: MTT cytotoxicity test on Caco-2 cells; format: cell-based, human
Method: as §2, §1

cells = test: LDH activity test (cell-membrane damage), cell lines not given; format: cell-based, human; conditions: exposure at EC50 concentration, 24 h and 72 h; positive control 1% Triton X-100 = 100%
Excerpt: (§3) Summing up, only a few of the 27 tested derivatives could be promising as potential anti-cancer agents. Two of them—compound 22 and 27—would be a good starting point for future research. Therefore, we sought to compare their ability to induce necrotic cell death. Since necrotic cell death relies on the disruption of cell membrane, it results in the extracellular release of cytoplasmic enzymes such as lactate dehydrogenase (LDH). Thus, we compared LDH activity in the extracellular environment (culture media).
(§4) Additionally, the lactate dehydrogenase (LDH) activity test reflecting cell-membrane damage was performed for cells exposed to selected tested compounds. LDH activity was determined in the culture medium by measuring the decrease in NADH (nicotinamide adenine dinucleotide, reduced disodium salt). The decrease in the amount of NADH was directly correlated to the increase in the number of damaged cells. To measure LDH activity, the culture medium was collected from the wells with cells exposed to concentrations equal to the EC50 values of tested compounds after short- (24 h), and long-time (72 h) exposure. The LDH activity test was performed as follows: 25 μL of NADH (2.5 mg/mL) and 25 μL of sodium pyruvate (2.5 mg/mL) were added to 150 μL of the collected culture medium. Absorbance at 340 nm was spectrophotometrically measured. […]

HeLa cells [4] = test: LDH activity test (cell-membrane damage), HeLa cells; format: cell-based; conditions: exposure at EC50 concentration
Excerpt: as §3, §4

[5] = Homo sapiens, HeLa, 24 h, HeLa, 24 h culture, MTT, read-out: EC50 for HeLa Cells
[6] = Homo sapiens, HeLa, 72 h, HeLa, 72 h, MTT, read-out: EC50 Value HeLa 72 h
[7] = 24 h, read-out: EC50 Value HDF 24 h
[8] = 72 h, read-out: EC50 Value HDF 72 h
[9] = A549, 24 h, MTT, read-out: EC50 Value A549 24 h
[10] = A549, 72 h, MTT, read-out: EC50 Value A549 72 h
[11] = Homo sapiens, Caco-2, 24 h, MTT, read-out: EC50 Value Caco-2 24 h
[12] = Homo sapiens, Caco-2, 72 h, MTT, read-out: EC50 Value Caco-2 72 h

**Q.** For `C/C(=N\OCCN1CCOCC1)c1ccccc1` [Compound 22, (E)-acetophenone O-2-morpholinoethyl oxime], which “viability of HeLa cells (of control)” value (HeLa cells [1]; 100–250 μg/mL, MTT) is on record?
**A.** The value was “below 20%”.

**Q.** What about the EC50 (HeLa cells [1]; [5]) of the same compound?
**A.** Its EC50 is 23.1 µg/mL and 90 µM.

**Q.** And the EC50 (HeLa cells [1]; [6])?
**A.** Its EC50 is 30 µM.

**Q.** What about the EC50 (HeLa cells [1]; Homo sapiens, HeLa, 72 h, HeLa, 72 h, read-out: EC50 HeLa) of the same compound?
**A.** The EC50 was ~30 µM.

**Q.** What about the viability at 50 µg/mL (HeLa cells [1]; Homo sapiens, HeLa, 50 μg/mL, 24 h exposure) of the same compound?
**A.** The viability at 50 µg/mL was ~20%.

**Q.** What about the viability at 24 h, 50 μg/mL [2] of the same compound?
**A.** The viability at 24 h, 50 μg/mL was ~20%.

**Q.** And the EC50 [3, 7]?
**A.** The EC50 was 27.3 µg/mL and 110 µM.

**Q.** What about the EC50 [3, 8] of the same compound?
**A.** Its EC50 is 8.04 µg/mL and 30 µM.

**Q.** And the EC50 (A549 cells; [9])?
**A.** The EC50 was 10.2 µg/mL and 40 µM.

**Q.** And the EC50 (A549 cells; [10])?
**A.** Its EC50 is 30 µM.

**Q.** What about the EC50 (A549 cells; A549, 72 h, read-out: EC50 A549) of the same compound?
**A.** The EC50 was ~30 µM.

**Q.** What about the viability at 50 µg/mL (A549 cells; A549, 50 μg/mL, 24 h exposure) of the same compound?
**A.** The viability at 50 µg/mL was ~20%.

**Q.** And the EC50 (Caco-2 cells; [11])?
**A.** The EC50 was 9.45 µg/mL and 40 µM.

**Q.** And the EC50 (Caco-2 cells; [12])?
**A.** The EC50 was 30 µM.

**Q.** What about the EC50 (Caco-2 cells; Homo sapiens, Caco-2, 72 h, read-out: EC50 Caco-2) of the same compound?
**A.** The EC50 was ~30 µM.

**Q.** And the viability at 50 µg/mL (Caco-2 cells; Homo sapiens, Caco-2, 50 μg/mL, 24 h exposure)?
**A.** Its viability at 50 µg/mL is ~20%.

**Q.** What about the “increase in LDH activity outside the cells (of positive control)” value (cells) of the same compound?
**A.** The value was ≤ 20%.

**Q.** Which results are given for `COc1ccc(CO/N=C(\C)c2cc3ccccc3s2)cc1` [Compound 27, (E)-1-(benzothiophene-2-yl)ethanone O-4-methoxybenzyl oxime]?
**A.** EC50 Value HeLa 72 h (HeLa cells [1]; HeLa, 72 h, MTT): 27.9 µg/mL (≈ 89.6 µM); EC50 (HeLa cells [1]; [5]): 93.8 µg/mL and 300 µM; EC50 (HeLa cells [1]; [6]): 28 µg/mL and 90 µM; EC50 [3, 7]: 150 µg/mL and 480 µM; EC50 [3, 8]: 140 µg/mL and 450 µM; EC50 (A549 cells; [9]): > 250 µg/mL and > 800 µM; EC50 (A549 cells; [10]): 143 µg/mL and 460 µM; EC50 Value Caco-2 72 h (Caco-2 cells; Caco-2, 72 h, MTT): 116.47 µg/mL (≈ 374 µM); EC50 (Caco-2 cells; [11]): 122 µg/mL and 390 µM; EC50 (Caco-2 cells; [12]): 116 µg/mL and 370 µM; membrane damage and release of LDH (HeLa cells [4]): extreme membrane damage and release of LDH
